The target in one experiment is T1, FLT3-ITD (Homo sapiens, UniProt P36888).
T1 construct: FLT3-ITD; Invitrogen #PV6190
T1 sequence (P36888 1-993): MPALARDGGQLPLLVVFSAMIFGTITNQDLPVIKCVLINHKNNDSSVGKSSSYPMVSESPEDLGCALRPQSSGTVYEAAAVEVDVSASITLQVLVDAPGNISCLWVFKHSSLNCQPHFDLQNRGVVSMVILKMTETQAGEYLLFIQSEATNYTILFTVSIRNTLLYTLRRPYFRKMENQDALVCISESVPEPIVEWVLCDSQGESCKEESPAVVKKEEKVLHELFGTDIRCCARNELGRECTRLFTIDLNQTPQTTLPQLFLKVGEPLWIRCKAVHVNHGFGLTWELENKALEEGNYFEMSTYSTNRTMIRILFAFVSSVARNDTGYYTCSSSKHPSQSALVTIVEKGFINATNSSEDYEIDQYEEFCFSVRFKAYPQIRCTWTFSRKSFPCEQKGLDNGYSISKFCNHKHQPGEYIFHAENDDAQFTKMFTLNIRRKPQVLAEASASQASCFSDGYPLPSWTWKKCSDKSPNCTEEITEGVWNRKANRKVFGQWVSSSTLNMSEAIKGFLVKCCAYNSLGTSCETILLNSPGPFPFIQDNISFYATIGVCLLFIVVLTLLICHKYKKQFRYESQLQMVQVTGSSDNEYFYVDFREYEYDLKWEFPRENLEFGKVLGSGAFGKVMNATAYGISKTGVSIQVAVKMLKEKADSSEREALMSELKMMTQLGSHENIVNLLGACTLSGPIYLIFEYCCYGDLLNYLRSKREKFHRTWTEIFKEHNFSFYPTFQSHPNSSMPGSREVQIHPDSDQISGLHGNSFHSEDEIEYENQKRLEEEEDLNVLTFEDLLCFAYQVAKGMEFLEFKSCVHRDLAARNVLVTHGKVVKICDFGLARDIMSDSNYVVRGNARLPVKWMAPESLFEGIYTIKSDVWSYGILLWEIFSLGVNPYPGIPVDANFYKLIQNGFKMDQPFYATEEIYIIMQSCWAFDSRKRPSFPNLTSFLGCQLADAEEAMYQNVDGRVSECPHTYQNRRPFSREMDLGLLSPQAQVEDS
Nature of the experiment: FLT3-ITD biochemical kinase assay (AlphaScreen). The text has this: (§1) In order to determine the effect of compounds on FLT3 catalytic activity, kinase assays using recombinant enzymes and AlphaScreen® technology have been established. When the kinases are catalytically active, they phosphorylate a biotinylated peptide substrate on tyrosine residues. Using AlphaScreen® technology, the ability of the compounds to affect the catalytic activity of the kinases can be measured quantitatively. The peptide substrate is immobilized by the AlphaScreen® Streptavidin Donor beads and, upon phosphorylation by a tyrosine kinase, can bind to AlphaScreen® Anti-Phosphotyrosine (PY20) Acceptor beads. Upon excitation of these beads with laser light at 680 nm, singlet oxygen is produced. This singlet oxygen is rapidly quenched, unless the AlphaScreen® Anti-Phosphotyrosine (PY20) Acceptor beads are in close proximity, in which case a proximity signal can be measured at 580 nm. In the presence of catalytic activity, there is a very strong proximity signal. Selective kinase inhibitors affect a decrease in this proximity signal through a decrease in tyrosine phosphorylation of the peptide substrate.
(§2) Substrate • Poly (Glu4-Tyr) Peptide, biotin conjugate [Biotin-GG(EEEEY)10EE (SEQ ID NO: 4)] • UBI/Millipore #12-440 • Final concentration=30 nM
(§3) Adenosine Triphosphate (ATP) • Sigma #A-3377 • Final concentration for IC50 determination=10 μM (FLT3-D835Y) or 100 μM (FLT3 or FLT3-ITD) • Detection Reagent • AlphaScreen® Phosphotyrosine (PY20) Assay Kit • Perkin-Elmer #6760601M • Final concentration=10 μg/mL
(§4) Centrifuge 1 minute, shake to mix, and incubate as follows:
(§5) • Mix Streptavidin Donor beads at 6× final concentration in Stop/Detection buffer. • Add 5 μL Streptavidin Donor beads to the reaction plate. Centrifuge 1 minute, shake to mix, and incubate at room temperature for 20 minutes. • Mix Anti-Phosphotyrosine (PY20) Acceptor beads at 6× final concentration in Stop/Detection buffer. • Add 5 μL Anti-Phosphotyrosine (PY20) beads to the reaction plate. • Centrifuge 1 minute, shake to mix, and incubate at room temperature for 60 minutes. • Read plate on Wallac EnVision™ 2103 Multilabel Reader. In Vivo Model System Testing
(Bead proximity is the source of the signal in Alpha formats.)

The target of another experiment is T2, FLT3-D835Y (Homo sapiens, UniProt P36888, D835Y).
T2 construct: purchased Invitrogen PV3967
T2 sequence (P36888 27-993 D835Y): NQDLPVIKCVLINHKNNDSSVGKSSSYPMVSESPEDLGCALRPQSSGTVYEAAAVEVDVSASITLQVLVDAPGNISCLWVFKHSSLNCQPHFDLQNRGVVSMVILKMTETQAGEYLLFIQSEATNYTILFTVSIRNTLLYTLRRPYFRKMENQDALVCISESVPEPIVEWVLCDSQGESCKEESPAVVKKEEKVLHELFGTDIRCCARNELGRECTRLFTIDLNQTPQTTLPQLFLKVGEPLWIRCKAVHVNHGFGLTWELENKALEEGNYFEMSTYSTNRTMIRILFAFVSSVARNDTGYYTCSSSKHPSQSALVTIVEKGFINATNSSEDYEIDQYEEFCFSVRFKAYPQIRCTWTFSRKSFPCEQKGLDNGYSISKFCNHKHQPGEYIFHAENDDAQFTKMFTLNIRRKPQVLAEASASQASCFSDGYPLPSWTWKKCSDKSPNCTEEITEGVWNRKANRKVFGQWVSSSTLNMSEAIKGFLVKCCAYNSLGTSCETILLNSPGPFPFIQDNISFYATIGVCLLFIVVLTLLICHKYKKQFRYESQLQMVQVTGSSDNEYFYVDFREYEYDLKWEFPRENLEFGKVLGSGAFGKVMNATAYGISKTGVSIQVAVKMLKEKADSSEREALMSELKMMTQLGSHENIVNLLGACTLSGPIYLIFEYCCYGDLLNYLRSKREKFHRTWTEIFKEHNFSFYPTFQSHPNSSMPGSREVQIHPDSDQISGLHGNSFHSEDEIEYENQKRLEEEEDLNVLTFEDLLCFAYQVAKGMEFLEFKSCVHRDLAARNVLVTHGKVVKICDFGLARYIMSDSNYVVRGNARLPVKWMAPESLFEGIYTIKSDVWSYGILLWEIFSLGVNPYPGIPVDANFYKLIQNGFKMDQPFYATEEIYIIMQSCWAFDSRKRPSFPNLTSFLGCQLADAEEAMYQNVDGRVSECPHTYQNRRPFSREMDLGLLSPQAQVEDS
Nature of the experiment: FLT3-D835Y biochemical kinase assay (AlphaScreen).
Description: as §1, §2, §3, §4, §5

A word on the IC50: it is the concentration at which inhibition is half-maximal. With `CCS(=O)(=O)Nc1cccc(-c2cnc3[nH]cc(-c4ccc5ncn(C)c5c4)c3n2)c1` [P-154, N-[3-[7-(3-methylbenzimidazol-5-yl)-5H-pyrrolo[2,3-b]pyrazin-2-yl]phenyl]ethanesulfonamide], the IC50 on FLT3-ITD and against FLT3-D835Y was 0.0001 to 1 µM throughout. As to `Cn1cnc2ccc(-c3c[nH]c4ncc(C#Cc5ccccc5)cc34)cc21` [P-139, 1-methyl-6-[5-(2-phenylethynyl)-1H-pyrrolo[2,3-b]pyridin-3-yl]benzimidazole], the IC50 against FLT3-ITD and on FLT3-D835Y was 0.0001 to 1 µM in each case. As for `COc1cc(-c2cnc3[nH]cc(-c4ccc5ncsc5c4)c3n2)cc(C)n1` [P-173, 6-[2-(2-methoxy-6-methyl-4-pyridyl)-5H-pyrrolo[2,3-b]pyrazin-7-yl]-1,3-benzothiazole], the IC50 on FLT3-ITD and at FLT3-D835Y was 0.0001 to 1 µM in each case. Turning to `O=S1(=O)CCCN1c1cccc(-c2cnc3[nH]cc(-c4ccc5ncsc5c4)c3n2)c1` [P-170, 2-[3-[7-(1,3-benzothiazol-6-yl)-5H-pyrrolo[2,3-b]pyrazin-2-yl]phenyl]-1,2-thiazolidine 1,1-dioxide], the half-inhibitory concentration (IC50) against FLT3-ITD and against FLT3-D835Y was 0.0001 to 1 µM throughout.

Turning to `Cn1cnc2ccc(-c3c[nH]c4ncc(-c5cnn(-c6ccccn6)c5)cc34)cc21` [P-174, 1-methyl-6-[5-[1-(2-pyridyl)pyrazol-4-yl]-1H-pyrrolo[2,3-b]pyridin-3-yl]benzimidazole], the IC50 at FLT3-ITD and on FLT3-D835Y was 0.0001 to 1 µM each time. As for `COc1cc(-c2cnc3[nH]cc(-c4ccc5ncn(C(C)(C)C)c5c4)c3n2)cc(OC)n1` [P-194, 7-(3-tert-butylbenzimidazol-5-yl)-2-(2,6-dimethoxy-4-pyridyl)-5H-pyrrolo[2,3-b]pyrazine], the IC50 at FLT3-ITD and at FLT3-D835Y was 0.0001 to 1 µM each time. In turn, `CC(C)(C)n1cnc2ccc(-c3c[nH]c4ncc(-c5cncc(NS(C)(=O)=O)c5)cc34)cc21` [P-371, N-[5-[3-(3-tert-butylbenzimidazol-5-yl)-1H-pyrrolo[2,3-b]pyridin-5-yl]-3-pyridyl]methanesulfonamide] yielded an IC50 on FLT3-ITD of 0.0001 to 1 µM. For `Cc1ncc(-c2cnc3[nH]cc(-c4ccc5ncn(C(C)(C)C)c5c4)c3c2)cn1` [P-395, 1-tert-butyl-6-[5-(2-methylpyrimidin-5-yl)-1H-pyrrolo[2,3-b]pyridin-3-yl]benzimidazole], on FLT3-ITD, the half-inhibitory concentration (IC50) lay within 0.0001 to 1 µM. In turn, `CC(C)(C)n1cnc2ccc(-c3c[nH]c4ncc(-c5cccc(OCC#N)c5)cc34)cc21` [P-367, 2-[3-[3-(3-tert-butylbenzimidazol-5-yl)-1H-pyrrolo[2,3-b]pyridin-5-yl]phenoxy]acetonitrile] returned an IC50 against FLT3-ITD of 0.0001 to 1 µM. On FLT3-ITD, `CC(C)(C)n1cnc2ccc(-c3c[nH]c4ncc(-c5cnc(C(=O)O)nc5)cc34)cc21` [P-402, 5-[3-(3-tert-butylbenzimidazol-5-yl)-1H-pyrrolo[2,3-b]pyridin-5-yl]pyrimidine-2-carboxylic acid] had an IC50 of 0.0001 to 1 µM. The molecule `Cc1cc(-c2cnc3[nH]cc(-c4ccc5ncn(C(C)(C)C)c5c4)c3n2)ccn1` [P-403, 7-(3-tert-butylbenzimidazol-5-yl)-2-(2-methyl-4-pyridyl)-5H-pyrrolo[2,3-b]pyrazine] yielded an IC50 at FLT3-ITD of 0.0001 to 1 µM. Take `Cc1ncc(-c2cnc3[nH]cc(-c4ccc5ncn(C(C)(C)C)c5c4)c3c2)cc1C#N` [P-391, 5-[3-(3-tert-butylbenzimidazol-5-yl)-1H-pyrrolo[2,3-b]pyridin-5-yl]-2-methyl-pyridine-3-carbonitrile]: the IC50 at FLT3-ITD fell in the range of 0.0001 to 1 µM.

The molecule `COCCOc1cncc(-c2cnc3[nH]cc(-c4ccc5ncn(C(C)(C)C)c5c4)c3c2)c1` [P-368, 1-tert-butyl-6-[5-[5-(2-methoxyethoxy)-3-pyridyl]-1H-pyrrolo[2,3-b]pyridin-3-yl]benzimidazole] returned an IC50 on FLT3-ITD of 0.0001 to 1 µM. Regarding `CC(C)(C)n1cnc2ccc(-c3c[nH]c4ncc(-c5cncnc5)cc34)cc21` [P-399, 1-tert-butyl-6-(5-pyrimidin-5-yl-1H-pyrrolo[2,3-b]pyridin-3-yl)benzimidazole], the IC50 against FLT3-ITD lay within 0.0001 to 1 µM.

Molecule `CC(C)(C)n1cnc2ccc(-c3c[nH]c4ncc(-c5cccc(OCC6CC6)c5)cc34)cc21` [P-373, 1-tert-butyl-6-[5-[3-(cyclopropylmethoxy)phenyl]-1H-pyrrolo[2,3-b]pyridin-3-yl]benzimidazole] had a 50% inhibitory concentration (IC50) at FLT3-ITD of 0.0001 to 1 µM. On to `Cc1ncc(-c2cnc3[nH]cc(-c4ccc5ncn(C(C)(C)C)c5c4)c3c2)cc1F` [P-392, 1-tert-butyl-6-[5-(5-fluoro-6-methyl-3-pyridyl)-1H-pyrrolo[2,3-b]pyridin-3-yl]benzimidazole], for which the half-maximal inhibitory concentration (IC50) at FLT3-ITD was 0.0001 to 1 µM. `CC(C)(C)n1cnc2ccc(-c3c[nH]c4ncc(-c5cnc(C#N)nc5)cc34)cc21` [P-396, 5-[3-(3-tert-butylbenzimidazol-5-yl)-1H-pyrrolo[2,3-b]pyridin-5-yl]pyrimidine-2-carbonitrile] displayed a half-inhibitory concentration (IC50) at FLT3-ITD of 0.0001 to 1 µM. On to `CC(C)(C)n1cnc2ccc(-c3c[nH]c4ncc(-c5cnc(N6CCC6)nc5)cc34)cc21` [P-398, 5-[2-(azetidin-1-yl)pyrimidin-5-yl]-3-(3-tert-butylbenzimidazol-5-yl)-1H-pyrrolo[2,3-b]pyridine], for which the IC50 against FLT3-ITD was in the range of 0.0001 to 1 µM. The molecule `CN(C)c1ncc(-c2cnc3[nH]cc(-c4ccc5ncn(C(C)(C)C)c5c4)c3c2)cn1` [P-401, 5-[3-(3-tert-butylbenzimidazol-5-yl)-1H-pyrrolo[2,3-b]pyridin-5-yl]-N,N-dimethyl-pyrimidin-2-amine] displayed an IC50 against FLT3-ITD of 0.0001 to 1 µM. On FLT3-ITD, `CC(C)(C)n1cnc2ccc(-c3c[nH]c4ncc(-c5cccc(OCC(=O)O)c5)cc34)cc21` [P-374, 2-[3-[3-(3-tert-butylbenzimidazol-5-yl)-1H-pyrrolo[2,3-b]pyridin-5-yl]phenoxy]acetic acid] came in with an IC50 of 0.0001 to 1 µM.

Values taken from patent publication US10160755B2 (Plexxikon Inc., priority 2015, dated 2018).
